According to ChEMBL document CHEMBL5724806, “Unraveling interindividual differences and functional consequences of gut microbial metabolism of immunosuppressants” (2024):

What was measured:
Type in all cases: ADME
[1] = (§1) The drug is tested on Bacteroides vulgatus strain: DSM1447 for biotransformation under anaerobic condition. The drug concentrations were measured over 6 timepoints collected between 0 and 12 hours of incubation by liquid-chromatography-coupled mass spectrometry (LC–MS); design: dose 5 uM, timepoint 0, 1.5, 3, 6, 9, 12 hours; settings: phocaeicola vulgatus, 5 µM
[2] = The drug is tested on Actinomyces naeslundi strain: DSM43013 for biotransformation under anaerobic condition. The drug concentrations were measured over 6 timepoints collected between 0 and 12 hours of incubation by liquid-chromatography-coupled mass spectrometry (LC–MS); design: dose 5 uM, timepoint 0, 1.5, 3, 6, 9, 12 hours; settings: actinomyces naeslundii, 5 µM
[3] = (§2) The drug is tested on Streptococcus mitis strain: DSM12643 for biotransformation under microaerobic condition. The drug concentrations were measured over 6 timepoints collected between 0 and 12 hours of incubation by liquid-chromatography-coupled mass spectrometry (LC–MS); design: dose 5 uM, timepoint 0, 1.5, 3, 6, 9, 12 hours; settings: 5 µM
[4] = as §1, with “the gut metagenome community of T-05 with ENA study accession number: PRJEB31790” for “Bacteroides vulgatus strain: DSM1447”, “7” for “6”; design: dose 5 uM, timepoint 0, 0.75, 1.5, 3, 6, 9, 12 hours; settings: 5 µM
[5] = The drug is tested on Bacteroides thetaiotaomicron strain: DSM2079 for biotransformation under anaerobic condition. The drug concentrations were measured over 6 timepoints collected between 0 and 12 hours of incubation by liquid-chromatography-coupled mass spectrometry (LC–MS); design: dose 5 uM, timepoint 0, 1.5, 3, 6, 9, 12 hours; settings: 5 µM
[6] = The drug is tested on Eubacterium eligens strain: DSM3376 for biotransformation under anaerobic condition. The drug concentrations were measured over 6 timepoints collected between 0 and 12 hours of incubation by liquid-chromatography-coupled mass spectrometry (LC–MS); design: dose 5 uM, timepoint 0, 1.5, 3, 6, 9, 12 hours; settings: lachnospira eligens, 5 µM
[7] = as §2, with “the gut metagenome community of A-04 with ENA study accession number: PRJEB31790” for “Streptococcus mitis strain: DSM12643”, “7” for “6”; design: dose 5 uM, timepoint 0, 0.75, 1.5, 3, 6, 9, 12 hours; settings: 5 µM
[8] = The drug is tested on Lactobacillus gasseri strain: DSM20243 for biotransformation under microaerobic condition. The drug concentrations were measured over 6 timepoints collected between 0 and 12 hours of incubation by liquid-chromatography-coupled mass spectrometry (LC–MS); design: dose 5 uM, timepoint 0, 1.5, 3, 6, 9, 12 hours; settings: 5 µM
[9] = The drug is tested on Capnocytophaga ochracea strain: DSM7271 for biotransformation under anaerobic condition. The drug concentrations were measured over 6 timepoints collected between 0 and 12 hours of incubation by liquid-chromatography-coupled mass spectrometry (LC–MS); design: dose 5 uM, timepoint 0, 1.5, 3, 6, 9, 12 hours; settings: 5 µM
[10] = as §1, with “the gut metagenome community of T-01 with ENA study accession number: PRJEB31790” for “Bacteroides vulgatus strain: DSM1447”, “7” for “6”; design: dose 5 uM, timepoint 0, 0.75, 1.5, 3, 6, 9, 12 hours; settings: 5 µM

SMILES | Bacterial Biotransformation [1] | Bacterial Biotransformation [2] | Bacterial Biotransformation [3] | Bacterial Biotransformation [4] | Bacterial Biotransformation [5] | Bacterial Biotransformation [6] | Bacterial Biotransformation [7] | Bacterial Biotransformation [8] | Bacterial Biotransformation [9] | Bacterial Biotransformation [10]
CO[C@H]1C[C@@H]2CC[C@@H](C)[C@@](O)(O2)C(=O)C(=O)N2CCCC[C@H]2C(=O)O[C@H]([C@H](C)C[C@@H]2CC[C@@H](OCCO)[C@H](OC)C2)CC(=O)[C@H](C)/C=C(\C)[C@@H](O)[C@@H](OC)C(=O)[C@H](C)C[C@H](C)/C=C/C=C/C=C/1C [EVEROLIMUS] | Compound NOT metabolized | Compound NOT metabolized | Compound NOT metabolized | Compound NOT metabolized | Compound NOT metabolized | Compound NOT metabolized | Compound metabolized | Compound NOT metabolized | Compound NOT metabolized | Compound NOT metabolized
NS(=O)(=O)c1cc(C(=O)O)c(NCc2ccco2)cc1Cl [FUROSEMIDE] | Compound NOT metabolized | Compound NOT metabolized | Compound NOT metabolized | Compound NOT metabolized | Compound NOT metabolized | Compound NOT metabolized | Compound NOT metabolized | Compound NOT metabolized | Compound NOT metabolized | Compound NOT metabolized
C[C@]12CCC(=O)C=C1CC[C@@H]1[C@@H]2[C@@H](O)C[C@@]2(C)[C@H]1CC[C@]2(O)C(=O)CO [HYDROCORTISONE] | Compound NOT metabolized | Compound NOT metabolized | Compound NOT metabolized | Compound metabolized | Compound NOT metabolized | Compound NOT metabolized | Compound metabolized | Compound NOT metabolized | Compound NOT metabolized | Compound metabolized
CN(Cc1cnc2nc(N)nc(N)c2n1)c1ccc(C(=O)N[C@@H](CCC(=O)O)C(=O)O)cc1 [METHOTREXATE] | Compound NOT metabolized | Compound NOT metabolized | Compound NOT metabolized | Compound metabolized | Compound NOT metabolized | Compound NOT metabolized | Compound metabolized | Compound NOT metabolized | Compound NOT metabolized | Compound NOT metabolized
C[C@H]1C[C@@H]2[C@H]([C@@H](O)C[C@@]3(C)[C@H]2CC[C@]3(O)C(=O)CO)[C@@]2(C)C=CC(=O)C=C12 [METHYLPREDNISOLONE] | Compound NOT metabolized | Compound NOT metabolized | Compound NOT metabolized | Compound NOT metabolized | Compound NOT metabolized | Compound NOT metabolized | Compound metabolized | Compound NOT metabolized | Compound NOT metabolized | Compound NOT metabolized
COc1c(C)c2c(c(O)c1C/C=C(\C)CCC(=O)OCCN1CCOCC1)C(=O)OC2 [MYCOPHENOLATE MOFETIL] | Compound NOT metabolized | Compound metabolized | Compound metabolized | Compound metabolized | Compound NOT metabolized | Compound metabolized | Compound metabolized | Compound NOT metabolized | Compound NOT metabolized | Compound metabolized
COc1c(C)c2c(c(O)c1C/C=C(\C)CCC(=O)O)C(=O)OC2 [MYCOPHENOLIC ACID] | Compound NOT metabolized | Compound NOT metabolized | Compound NOT metabolized | Compound metabolized | Compound NOT metabolized | Compound NOT metabolized | Compound NOT metabolized | Compound NOT metabolized | Compound NOT metabolized | Compound NOT metabolized
C[C@]12C=CC(=O)C=C1CC[C@@H]1[C@@H]2[C@@H](O)C[C@@]2(C)[C@H]1CC[C@]2(O)C(=O)CO [PREDNISOLONE] | Compound NOT metabolized | Compound NOT metabolized | Compound NOT metabolized | Compound NOT metabolized | Compound NOT metabolized | Compound NOT metabolized | Compound metabolized | Compound NOT metabolized | Compound NOT metabolized | Compound NOT metabolized
C[C@]12C=CC(=O)C=C1CC[C@@H]1[C@@H]2C(=O)C[C@@]2(C)[C@H]1CC[C@]2(O)C(=O)CO [PREDNISONE] | Compound NOT metabolized | Compound NOT metabolized | Compound NOT metabolized | Compound metabolized | Compound NOT metabolized | Compound NOT metabolized | Compound metabolized | Compound NOT metabolized | Compound NOT metabolized | Compound metabolized
CNC(=C[N+](=O)[O-])NCCSCc1ccc(CN(C)C)o1 [RANITIDINE] | Compound NOT metabolized | Compound NOT metabolized | Compound metabolized | Compound NOT metabolized | Compound NOT metabolized | Compound metabolized | Compound metabolized | Compound NOT metabolized | Compound NOT metabolized | Compound NOT metabolized
CCC(C)(C)C(=O)O[C@H]1C[C@@H](C)C=C2C=C[C@H](C)[C@H](CC[C@@H]3C[C@@H](O)CC(=O)O3)[C@H]21 [SIMVASTATIN] | Compound NOT metabolized | Compound NOT metabolized | Compound NOT metabolized | Compound NOT metabolized | Compound metabolized | Compound NOT metabolized | Compound NOT metabolized | Compound NOT metabolized | Compound NOT metabolized | Compound NOT metabolized
